Laboratory results published in US20090297638A1.

Tests used:
human ERβ = molecular target: T1, human ERβ (Homo sapiens, UniProt Q92731); test: ERE-tk-Luc luciferase assay in U2OS osteosarcoma cells, ERβ; assay type: cell-based; details: co-administration with the extract (Herb 16)
T1 construct: expressed in transfected cells; host or cells: U2OS (human osteosarcoma)
Description: Preparation of Anemarrhena Asphodeloides Bge. from the Liliaceae Family: Samples of Anemarrhena asphodeloides Bge. from the Liliaceae Family were ground to fine powder using a commercial electric herb grinder; 5 grams were weighed and extracted in a) 50 ml of 100% EtOH or b) 50 ml of distilled H2O was simmered at 75° Celsius for 45 minutes. The extracts (a and b) were than decanted and only the soluble material was used.

TNF-RE tkLuc = TNF-RE tkLuc reporter, effect of antiestrogens (ER subtype not given); assay type: cell-based, human; details: for effect on the repression induced by E2: TNF-RE tkLuc, with E2; for activation of TNF-RE tkLuc: antiestrogens, in contrast to E2
Description: Plasmid Construction. […] ERβmutants were created with QuikChange site-directed mutagenesis kits (Stratagene), by using oligonucleotides containing the mutation. The mutants were sequenced with Sequenase kits (Amersham Pharmacia) to verify the presence of the mutation.

[1] = women at high risk for breast cancer; cited from earlier work
[2] = five years of therapy; cited from earlier work

T1 sequence (Q92731 whole entry): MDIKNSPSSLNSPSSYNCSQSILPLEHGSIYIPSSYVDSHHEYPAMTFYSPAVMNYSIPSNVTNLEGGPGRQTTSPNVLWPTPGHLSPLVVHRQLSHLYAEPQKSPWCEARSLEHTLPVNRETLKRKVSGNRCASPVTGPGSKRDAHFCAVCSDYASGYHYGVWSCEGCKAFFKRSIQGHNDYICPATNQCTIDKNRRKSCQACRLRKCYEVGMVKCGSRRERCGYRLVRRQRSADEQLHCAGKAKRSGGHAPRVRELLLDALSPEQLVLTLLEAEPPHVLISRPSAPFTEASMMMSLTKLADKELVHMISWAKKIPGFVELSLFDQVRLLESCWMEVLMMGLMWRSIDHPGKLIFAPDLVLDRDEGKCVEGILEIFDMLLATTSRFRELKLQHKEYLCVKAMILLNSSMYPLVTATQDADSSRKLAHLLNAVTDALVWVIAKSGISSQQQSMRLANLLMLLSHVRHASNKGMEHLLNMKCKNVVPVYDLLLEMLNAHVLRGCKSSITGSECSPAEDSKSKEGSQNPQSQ

Row | Structure (SMILES) | effect on extract-stimulated ERE-tk-Luc expression (human ERβ; FIG. 5) | effect on extract-stimulated ERE-tk-Luc expression (human ERβ; FIG. 5, listed as Raloxifene) | effect on the repression induced by E2 (TNF-RE tkLuc) | activation of TNF-RE tkLuc (TNF-RE tkLuc) [fold] | effect on extract-stimulated ERE-tk-Luc expression (human ERβ; FIG. 5, listed as ICI) | reduction of the risk of primary invasive breast cancer [1] [%] | reduction of mortality from breast cancer [2] [%] | reduction of the risk of recurrences [2] [%]
1 | O=C(c1ccc(OCCN2CCCCC2)cc1)c1c(-c2ccc(O)cc2)sc2cc(O)ccc12 [raloxifene] | counteracted | attenuated | abolished the repression induced by E2 | 2 | – | – | – | –
2 | C[C@]12CC[C@@H]3c4ccc(O)cc4C[C@@H](CCCCCCCCC[S+]([O-])CCCC(F)(F)C(F)(F)F)[C@H]3[C@@H]1CC[C@@H]2O (stereo partly shown) [ICI 182780] | counteracted | – | abolished the repression induced by E2 | 2 | attenuated | – | – | –
3 | CC/C(=C(\c1ccccc1)c1ccc(OCCN(C)C)cc1)c1ccccc1 [tamoxifen] | – | – | abolished the repression induced by E2 | 2 | – | 49 | 22 | 42
